Laboratory results as given in US6537986B2, “Oxazolidinone antibacterial agents having a thiocarbonyl funtionality” (Pharmacia & Upjohn Company, priority 1997, dated 2003).
Converted amounts (≈) assume the structure as drawn. Like-named read-outs stand apart in the source and are kept apart here.

Assays:
[1] = system: E. Faecium (EFAE 12712); test: MIC, standard agar dilution method; type: cell-based; conditions: Enterococcus faecium; Table II; key: E. Faecium; agar dilution, Mueller Hinton agar, incubated overnight at 35° C.; read-out: EFAE 12712 MIC
Experimental: (§1) MIC Test Method The in vitro MICs of test compounds were determined by a standard agar dilution method. […] Serial 2-fold dilutions of each sample are made using 1.0 ml aliquots of sterile distilled water. To each 1.0 ml aliquot of drug is added 9 ml of molten Mueller Hinton agar medium. The drug-supplemented agar is mixed, poured into 15×100 mm petri dishes, and allowed to solidify and dry prior to inoculation. Vials of each of the test organisms are maintained frozen in the vapor phase of a liquid nitrogen freezer. Test cultures are grown overnight at 35° C. on the medium appropriate for the organism. Colonies are harvested with a sterile swab, and cell suspensions are prepared in Trypticase Soy broth (TSB) to equal the turbidity of a 0.5 McFarland standard. A 1:20 dilution of each suspension is made in TSB. […] The plates are incubated overnight at 35° C. Following incubation the Minimum Inhibitory Concentration (MIC μg/ml), the lowest concentration of drug that inhibits visible growth of the organism, is read and recorded.

[2] = system: Enterococcus faecalis (EFAE 9217); test: MIC, standard agar dilution method; type: cell-based; conditions: incubated overnight at 35° C.
Experimental: as §1

[3] = system: Haemophilus influenzae (HINF 30063); test: MIC, standard agar dilution method; type: cell-based; conditions: Haemophilus influenzae, Table II, Mueller Hinton agar, incubated overnight at 35° C.
Experimental: as §1

[4] = system: Moraxella catarrhalis (MCAT 30610); test: MIC, standard agar dilution method; type: cell-based; conditions: Moraxella catarrhalis, Table II, Mueller Hinton agar, incubated overnight at 35° C.
Experimental: as §1

[5] = system: S. aureus (SAUR 9213); test: MIC, standard agar dilution method; type: cell-based; conditions: Staphylococcus aureus, incubated overnight at 35° C.
Experimental: as §1

[6] = system: S. epidermidis (SEPI 30593); test: MIC, standard agar dilution method; type: cell-based; conditions: Staphylococcus epidermidis, Table II, Mueller Hinton agar, incubated overnight at 35° C.
Experimental: as §1

[7] = system: S. pneumoniae (SPNE 9912); test: MIC, standard agar dilution method; type: cell-based; conditions: Streptococcus pneumoniae, incubated overnight at 35° C.
Experimental: as §1

[8] = system: S. pyogenes (SPYO 152); test: MIC, standard agar dilution method; type: cell-based; conditions: Streptococcus pyogenes, incubated overnight at 35° C.
Experimental: as §1

[9] = system: S. epidermidis (SEPI 12084); test: MIC, standard agar dilution method; type: cell-based; conditions: Staphylococcus epidermidis, Table 1, Mueller Hinton agar, incubated overnight at 35° C., read-out: Oxazolidinone MIC Values (Gram+) SEPI 12084
Experimental: MIC Test Method The in vitro MICs of test compounds were determined by a standard agar dilution method. A stock drug solution of each analog is prepared in the preferred solvent, usually DMSO:H2O (1:3). Serial 2-fold dilutions of each sample are made using 1.0 ml aliquots of sterile distilled water. To each 1.0 ml aliquot of drug is added 9 ml of molten Mueller Hinton agar medium. The drug-supplemented agar is mixed, poured into 15×100 mm petri dishes, and allowed to solidify and dry prior to inoculation. Vials of each of the test organisms are maintained frozen in the vapor phase of a liquid nitrogen freezer. Test cultures are grown overnight at 35° C. on the medium appropriate for the organism. Colonies are harvested with a sterile swab, and cell suspensions are prepared in Trypticase Soy broth (TSB) to equal the turbidity of a 0.5 McFarland standard. A 1:20 dilution of each suspension is made in TSB. […] The plates are incubated overnight at 35° C. Following incubation the Minimum Inhibitory Concentration (MIC μg/ml), the lowest concentration of drug that inhibits visible growth of the organism, is read and recorded.

MIC [1]: 0.5 µg/mL (≈ 1.41 µM) | MIC ([2]; Enterococcus faecalis, Table 1, Mueller Hinton agar, read-out: Oxazolidinone MIC Values (Gram+) EFAE 9217): 0.5 µg/mL (≈ 1.41 µM) | MIC ([2]; Table II, key: Enterococcus faecalis, Mueller Hinton agar, read-out: EFAE 9217 MIC): 0.5 µg/mL (≈ 1.41 µM) | MIC [3]: 8 µg/mL (≈ 22.6 µM) | MIC [4]: 1 µg/mL (≈ 2.83 µM) | MIC ([5]; Table 1, Mueller Hinton agar, read-out: Oxazolidinone MIC Values (Gram+) SAUR 9213): 1 µg/mL (≈ 2.83 µM) | MIC ([5]; Table II, Mueller Hinton agar, read-out: SAUR 9213 MIC): 1 µg/mL (≈ 2.83 µM) | MIC [6]: 0.25 µg/mL (≈ 0.707 µM) | MIC ([7]; Table 1, Mueller Hinton agar, read-out: Oxazolidinone MIC Values (Gram+) SPNE 9912): 0.13 µg/mL (≈ 0.368 µM) | MIC ([7]; Table II, Mueller Hinton agar, read-out: SPNE 9912 MIC): < 0.125 µg/mL | MIC ([8]; Table 1, Mueller Hinton agar, read-out: Oxazolidinone MIC Values (Gram+) SPYO 152): 0.13 µg/mL (≈ 0.368 µM) | MIC ([8]; Table II, Mueller Hinton agar, read-out: SPYO 152 MIC): < 0.125 µg/mL | MIC [9]: 0.25 µg/mL (≈ 0.707 µM) | melting point: 157.5 to 158.5 °C
Compound: CC(=S)NC[C@H]1CN(c2ccc(N3CCOCC3)c(F)c2)C(=O)O1 [Example 1, (S)-N-[[3-[3-Fluoro-4-(4-morpholinyl)phenyl]-2-oxo-5-oxazolidinyl]methyl]thioacetamide]
